Data from publication PMC3775972 (Wound repair and regeneration : official publication of the …, 2013).

Experiments:
[1] = tested on: T-lymphoblastic leukaemia CEM cells; settings: read-out: IC50, cytotoxicity; cited from earlier work
[2] = Fibroblast viability / cytotoxicity assay; format: cell-based, mouse; settings: mouse, NIH 3T3 fibroblasts (ATCC CCL-92)
3T3 mouse fibroblasts [3] = experiment: Scratch wound closure; format: cell-based; settings: for Scratch wound closure at 5 μM, %: 12 h incubation, mean ± SEM; for Fibroblast migration / scratch wound closure activity (in words): dose dependence at 0.1–10 μM, 12 h
[4] = tested on: primary mouse keratinocytes; experiment: Primary keratinocyte proliferation assay; format: cell-based; settings: for Proliferation of primary keratinocytes, dose dependence: respective doses, Alamar Blue; for Proliferation of primary keratinocytes: versus vehicle (ethanol)
K562 cancer cell line = settings: cited from earlier work
[5] = Body weight and food intake after wounding; format: in vivo; settings: 10 μg/mouse topically daily, d 2 post-wounding
3T3 mouse fibroblasts [6] = experiment: Fibroblast viability / cytotoxicity assay; format: cell-based; settings: for IC50: read-out: Cell cytotoxicity, IC, MTT, 0.3–30 μM for 4 h
3T3 mouse fibroblasts [7] = experiment: Fibroblast proliferation assay; format: cell-based; settings: 24 h, BrdU, mean ± SEM
healthy rats = settings: oral administration, associated with activation of Akt; cited from earlier work
HeLa cancer cell line = settings: cited from earlier work
HOS cancer cell line = settings: cited from earlier work
[8] = tested on: full thickness dermal wound in C57BL/6J mice; experiment: Mouse model of cutaneous wound healing; format: in vivo
TGF-β mRNA = experiment: Real time PCR of wound tissue, TGF-β; format: in vivo; settings: d 10 post-wounding, 10 μg/mouse topical daily
macrophage cell culture = experiment: LPS-stimulated inflammation in macrophage cell culture; format: cell-based; settings: preliminary data, not shown
phospho-Akt1(Ser473) = experiment: Western blot of edge-of-the-wound tissue, Akt phosphorylation; format: in vivo; settings: 10 μg/mouse topical daily
ICAM-1 mRNA = experiment: Real time PCR of wound tissue, ICAM-1; format: in vivo; settings: d 10 post-wounding, 10 μg/mouse topical daily
RPMI 8226 cancer cells = settings: read-out: IC50, cytotoxicity; RPMI 8226 cells; cited from earlier work
A549 cancer cell line = settings: cited from earlier work
TNF-α mRNA = experiment: Real time PCR of wound tissue, TNF-α; format: in vivo; settings: d 10 post-wounding, 10 μg/mouse topical daily
hybridoma mouse cells = settings: nM concentrations; cited from earlier work
3T3 mouse fibroblasts [9] = settings: PDGF 2 nM, reference treatment; cited from earlier work
human cancer cell lines = settings: below 50 μM; cited from earlier work

Q: With `CC[C@@H](C(C)C)[C@@H](O)[C@H](O)[C@@H](C)[C@H]1CC[C@H]2[C@@H]3CC(=O)[C@H]4C[C@H](O)[C@H](O)C[C@]4(C)[C@H]3CC[C@]12C` [(22R, 23R)-homocastasterone, reference compound] as the compound, how does the IC50 [1] read?
A: 13 µM

Q: For `CC[C@@H](C(C)C)[C@H](O)[C@@H](O)[C@@H](C)[C@H]1CC[C@H]2[C@@H]3CC(=O)[C@H]4C[C@H](F)CC[C@]4(C)[C@H]3CC[C@]12C` [Compound 4, (22S,23S,24S)-3α-fluoro-22,23-dihydroxy-24-ethyl-5 α-cholestan-6-one], which IC50 at 4 h [2] is on record?
A: ~30 µM

Q: And the “Scratch wound closure at 5 μM, %” value (3T3 mouse fibroblasts [3])?
A: 27.7 ± 4.0 %

Q: What about the “Fibroblast migration / scratch wound closure activity (in words)” value (3T3 mouse fibroblasts [3]) of the same compound?
A: high activity similar to HB

Q: What about the “Proliferation of primary keratinocytes, dose dependence” value [4] of the same compound?
A: dose-dependently decreased

Q: With `CC[C@@H](C(C)C)[C@H](O)[C@@H](O)[C@@H](C)[C@H]1CC[C@H]2[C@@H]3COC(=O)[C@H]4C[C@H](O)[C@H](O)C[C@]4(C)[C@H]3CC[C@]12C` [Compound 1, (22S, 23S, 24S)-2α, 3 α, 22,23-tetrahydroxy-24 ethyl-^2-homo-7-oxo-5α-cholestane-6-one] as the compound, how does the “Cytotoxicity (in words)” value (K562 cancer cell line) read?
A: no cytotoxicity

Q: And the “Body weight loss associated with injury” value [5]?
A: tendency for HB to reduce weight loss

Q: What about the “Cytotoxicity (in words)” value (3T3 mouse fibroblasts [6]; at or up to 30 μM, the highest concentration tested) of the same compound?
A: no cytotoxicity

Q: What about the IC50 (3T3 mouse fibroblasts [6]) of the same compound?
A: > 30 µM

Q: And the “Cell proliferation at 5 μM, % of control” value (3T3 mouse fibroblasts [7])?
A: 37.7 ± 3.4 % of control

Q: What about the Anabolic response (healthy rats) of the same compound?
A: selective anabolic response

Q: What about the “Cytotoxicity (in words)” value (HeLa cancer cell line) of the same compound?
A: no cytotoxicity

Q: What about the “Cytotoxicity (in words)” value (HOS cancer cell line) of the same compound?
A: no cytotoxicity

Q: And the Cutaneous wound healing ([8]; 10 μg topical per mouse per day for 10 d, versus vehicle)?
A: significantly improved

Q: What about the “Increase in speed of wound closure relative to control mice” value ([8]; d 4, percent of original wound size, 10 μg/mouse topical) of the same compound?
A: 2 fold

Q: And the “TGF-β mRNA level in wound tissue” value (TGF-β mRNA)?
A: weak effect

Q: What about the “Effect on LPS-stimulated inflammation” value (macrophage cell culture) of the same compound?
A: no pro- or anti-inflammatory effect

Q: And the “Scratch wound closure at 5 μM, %” value (3T3 mouse fibroblasts [3])?
A: 30 ± 4.2 %

Q: And the “Scratch wound closure at 5 μM, %” value (3T3 mouse fibroblasts [3]; listed as HB)?
A: 30 ± 4.2%

Q: And the “Akt-1 phosphorylation in edge-of-the-wound tissue” value (phospho-Akt1(Ser473))?
A: upregulation

Q: And the “Proliferation of primary keratinocytes” value ([4]; 3 μM)?
A: did not reach significance

Q: And the “Proliferation of primary keratinocytes” value ([4]; doses of 0.3 and 10 μM)?
A: significant increase

Q: And the “ICAM-1 mRNA level in wound tissue” value (ICAM-1 mRNA)?
A: significant suppression

Q: And the IC50 (RPMI 8226 cancer cells)?
A: ~30 µM

Q: And the IC50 [1]?
A: ~30 µM

Q: What about the “Cytotoxicity (in words)” value (A549 cancer cell line) of the same compound?
A: no cytotoxicity

Q: What about the “TNF-α mRNA level in wound tissue” value (TNF-α mRNA) of the same compound?
A: nearly complete downregulation

Q: With `CC(C)[C@H](C)[C@H](O)[C@@H](O)[C@@H](C)[C@H]1CC[C@H]2[C@@H]3COC(=O)[C@H]4C[C@@H](O)[C@H](O)C[C@]4(C)[C@H]3CC[C@]12C` [Compound 8, (22S,23S,24R)-2α,3α,22,23-tetrahydroxy-24-methyl-^2-homo-7-oxa-5α-cholestan-6-one] as the compound, how does the IC50 (3T3 mouse fibroblasts [6]) read?
A: > 30 µM

Q: What about the “Cell proliferation at 5 μM, % of control” value (3T3 mouse fibroblasts [7]) of the same compound?
A: 31.9 ± 5.3 % of control

Q: And the “Scratch wound closure at 5 μM, %” value (3T3 mouse fibroblasts [3])?
A: 13.2 ± 1.5%

Q: Which “Proportions of viable hybridoma mouse cells” value (hybridoma mouse cells) does the source give for `CC(C)[C@@H](C)[C@@H](O)[C@H](O)[C@@H](C)[C@H]1CC[C@H]2[C@@H]3COC(=O)[C@H]4C[C@H](O)[C@H](O)C[C@]4(C)[C@H]3CC[C@]12C` [24-epibrassinolide] here?
A: increased

Q: For `CC[C@H](C(C)C)[C@H](O)[C@@H](O)[C@@H](C)[C@H]1CC[C@H]2[C@@H]3COC(=O)[C@H]4C[C@H](F)CC[C@]4(C)[C@H]3CC[C@]12C` [Compound 3, (22S,23S,24R)-3α-fluoro-22,23-dihydroxy-24-ethyl-^2-homo-7-oxa-5 α-cholestan-6-one], which IC50 (3T3 mouse fibroblasts [6]) is on record?
A: ~30 µM

Q: And the “Scratch wound closure at 5 μM, %” value (3T3 mouse fibroblasts [3])?
A: 15.3 ± 2.6%

Q: For `CC(C)[C@@H](C)[C@@H](O)[C@H](O)[C@@H](C)[C@H]1CC[C@H]2[C@@H]3COC(=O)[C@H]4C[C@H](O)[C@H](O)C[C@]4(C)[C@H]3CC[C@]12C` [Compound 9, (22R,23R,24R)-2α,3α,22,23-tetrahydroxy-24-methyl-^2-homo-7-oxa-5α-cholestan-6-one], which IC50 (3T3 mouse fibroblasts [6]) is on record?
A: > 30 µM

Q: And the “Cell proliferation at 5 μM, % of control” value (3T3 mouse fibroblasts [7])?
A: 31.0 ± 2.6 % of control

Q: What about the “Scratch wound closure at 5 μM, %” value (3T3 mouse fibroblasts [3]) of the same compound?
A: 8.1 ± 1.6%

Q: With PDGF as the compound, how does the “Scratch wound closure, %” value (3T3 mouse fibroblasts [9]) read?
A: 64.8 ± 1.7 %

Q: What does the source list for `CC[C@@H](C(C)C)[C@H](O)[C@@H](O)[C@@H](C)[C@H]1CC[C@H]2[C@@H]3CC(=O)[C@H]4C[C@H](O)[C@H](O)C[C@]4(C)[C@H]3CC[C@]12C` [Compound 2, (22S, 23S, 24S)-2α, 3α, 22, 23-tetrahydroxy-24-ethyl-5α-cholestan-6-one]?
A: IC50 at 4 h [2]: > 30 µM; Cytotoxicity (in words) (human cancer cell lines): weak to no cytotoxicity; Scratch wound closure at 5 μM, % (3T3 mouse fibroblasts [3]): 32.9 ± 4.1 %

Q: With `CC[C@@H](C(C)C)[C@H](O)[C@@H](O)[C@@H](C)[C@H]1CC[C@H]2[C@@H]3CC(=O)N[C@H]4C[C@H](O)[C@H](O)C[C@]4(C)[C@H]3CC[C@]12C` [Compound 6, (22S,23S,24S)-2α,3α,22,23-tetrahydroxy-24-ethyl-^2-homo-6-aza-5α-cholestan-7-one] as the compound, how does the IC50 (3T3 mouse fibroblasts [6]) read?
A: > 30 µM

Q: What about the “Scratch wound closure at 5 μM, %” value (3T3 mouse fibroblasts [3]) of the same compound?
A: 30.5 ± 4.2 %

Q: What about the “Fibroblast migration / scratch wound closure activity (in words)” value (3T3 mouse fibroblasts [3]) of the same compound?
A: highest activity at 3 μM

Q: And the “Proliferation of primary keratinocytes, dose dependence” value [4]?
A: dose-dependently decreased

Q: Which IC50 (3T3 mouse fibroblasts [6]) does the source give for `CC[C@@H](C(C)C)[C@H](O)[C@@H](O)[C@@H](C)[C@H]1CC[C@H]2[C@@H]3CNC(=O)[C@H]4C[C@H](O)[C@H](O)C[C@]4(C)[C@H]3CC[C@]12C` [Compound 5, (22S,23S,24S)-2α,3α,22,23-tetrahydroxy-24-ethyl-^2-homo-7-aza-5α-cholestan-6-one] here?
A: 12.5 µM

Q: What about the “Scratch wound closure at 5 μM, %” value (3T3 mouse fibroblasts [3]) of the same compound?
A: 13.0 ± 0.7%

Q: And the “Fibroblast migration / scratch wound closure activity (in words)” value (3T3 mouse fibroblasts [3])?
A: no effect

Q: With `CCNC(=O)[C@H]1O[C@@H](n2cnc3c(N)nc(NCCc4ccc(CCC(=O)O)cc4)nc32)[C@H](O)[C@@H]1O` [CGS-21680, reference compound] as the compound, how does the “TGF-β mRNA level in wound tissue” value (TGF-β mRNA) read?
A: no effect

Q: What about the “ICAM-1 mRNA level in wound tissue” value (ICAM-1 mRNA) of the same compound?
A: no effect

Q: And the “TNF-α mRNA level in wound tissue” value (TNF-α mRNA)?
A: remarkable suppression
